pIC50: −log10 of the molar value.
How the values were obtained:
[1] = tested on: HCV replicon cells Huh 9B; experiment: HCV replicon assay (luciferase); type: cell-based; conditions: Hepatitis C virus, reduction of replicon level by 50% vs untreated cell control, 72 h
Method: (§1) HCV replicon cells Huh 9B (ReBlikon), containing the firefly luciferase—ubiquitin—neomycin phosphotransferase fusion protein and EMCV-IRES driven HCV polyprotein with cell culture adaptive mutations.
(§2) Cells were cultured at 37° C. in a 5% CO2 environment and split twice a week on seeding at 2×10^6 cells/flask on day 1 and 1×10^6 3 days later. G418 at 0.5 mg/ml was added to the culture medium but not the assay medium. The culture medium consisted of DMEM with […] glucose and glutamax (Gibco 61965-026) supplemented with 1×non-essential amino acids (Invitrogen 11140-035), penicillin (100 IU/ml)/streptomycin (100 μg/ml) (Invitrogen 15140-122), FCS (10%, 50 ml) and […] (Invitrogen 10131-027) & 10% Australian foetal calf serum (Invitrogen 10099-141).
(§3) A flask of cells was trypsinised and a cell count carried out. Cells were diluted to 100,000 cells/ml and 100 μl of this used to seed one opaque white 96-well plate (for the replicon assay) and one flat-bottomed clear plate (for the tox assay) for every five compounds to be tested for IC50. Wells G12 and H12 were left empty in the clear plate as the blank. Plates were then incubated at 37° C. in a 5% CO2 environment for 24 h.
(§4) On the following day compound dilutions are made up in medium at twice their desired final concentration in a clear round bottomed plate. All dilutions have a final DMSO concentration of 1%.
(§5) Once the dilution plate had been made up, controls and compounds were transferred to the assay plates (containing the cells) at 100 μl/well in duplicate wells. Exception: no compound was added to wells A1 and A2 of either plate and 100 μl of 1% DMSO was added to these instead. Plates were then incubated at 37° C. with 5% CO2 for 72 h.
At the end of the incubation time, the cells in the white plate were harvested by washing in PBS (100 μL per well) and gently tapping dry before addition of […] of lysis buffer (25 mM tris-phosphate, 8 mM MgCl2, 1 mM DTT, 1% Triton X-100, 15% glycerol. pH to 7.8 using KH2PO4 prior to triton and glycerol addition. Substrate was prepared: 23.5 mM beetle luciferin (Promega E1603), 26 mM ATP (Sigma O-2060) in […] Tris buffer pH 7.8 aliquoted and stored at −80° C. was thawed and diluted 1:50 in luciferase assay buffer (20 mM Tricine (Sigma T-0377), 1.07 mM magnesium carbonate hydroxide (Sigma M-5671), 0.1 mM EDTA (Sigma E-5134), 2.67 mM MgSO4(BDH 101514Y), 33.3 mM dithiothreitol (Sigma 150460) pH 7.8).
The M injector of the microplate luminometer (Lmax, Molecular Devices) was primed with 5×300 μl injections of the diluted substrate. After 5-60 min incubation in lysis buffer at room temperature, a plate was inserted into the luminometer and 100 μl luciferase assay reagent was added by the injector on the luminometer. The signal was measured using a 1 second delay followed by a 4 second measurement programme. The IC50, the concentration of the drug required for reducing the replicon level by 50% in relation to the untreated cell control value, can be calculated from the plot of the percentage reduction of the luciferase activity vs. drug concentration.

[2] = molecular target: T1, Recombinant HCV polymerase (BK strain) (Hepatitis C virus genotype 1b, UniProt P26663); experiment: HCV polymerase enzyme assay (radiometric [33P]-UTP incorporation); type: biochemical, HCV 1b
T1 construct: Recombinant HCV polymerase (BK strain) was expressed and purified from E. coli with a 21 amino acid C-terminal deletion; His6; made in house; host or cells: E. coli
Method: Compounds were tested for inhibition of HCV polymerase using a radiometric [^33P]-UTP incorporation assay and a biotinylated U13:PolyA primer:template RNA substrate.
Recombinant HCV polymerase (BK strain) was expressed and purified from E. coli with a 21 amino acid C-terminal deletion and a His6-tag. The general assay buffer consisted of 20 mM Tris (pH 7.5), 25 mM KCl, 5 mM MgCl2, 3 mM DTT, 0.5 mg/ml BSA, 0.01% Tween20. The standard reaction, in 96 well plates, contained 10 μl of diluted compound, 50 μl of substrate and 40 μl of enzyme. Compounds, supplied as 10 mM stocks in DMSO, were diluted initially in neat DMSO, and subsequently buffer was added to give a DMSO concentration of 30%; 10 μl of this was added to the assay plate to give a final concentration in the 100 μl assay of 3% DMSO. The biotinylated U13:PolyA RNA substrate was pre-annealed with 40 μM 5′-biotinylated U13 (Dharmacon) and 213 μg/ml PolyA (Amersham Biosciences) in water incubated at 70° C. for 5 minutes before being cooled on ice. Substrate (50 μl) was added in buffer to give a final concentration in the 100 μl assay of 125 nM biotinylated U13:0.63 μg/ml PolyA and 200 nM UTP with 0.4 μCi [^33P]-UTP per well (Perkin Elmer). The reaction was initiated by the addition of 40 μl of enzyme in buffer to give 100 nM final concentration. The reaction was incubated at 25° C. for 100 minutes and then stopped by addition of 100 μl of 100 mM EDTA. The samples were then transferred to 96 well Streptavidin-coated FlashPlates (Perkin Elmer) and incubated at room temperature for ˜1 hour to allow binding to occur. The plates were then washed three times with phosphate-buffered saline containing 0.05% Tween20 in an automated plate washer to remove unincorporated [^33P]-UTP, and then counted in a
Each plate included a set of positive controls (no compound, maximum signal) and negative controls (no enzyme, minimum signal) and in each run at least one reference is compound was included to validate the assay. The IC50, concentration required to inhibit the enzyme activity by 50%, was calculated using an 8-point IC50 curve and fitted using the program XLfit (IDBS).

[3] = tested on: HCV replicon cells Huh 9B; type: cell-based; conditions: concentration reducing total cell area by 50% relative to DMSO controls; 72 h
Method: as §1, §2, §3, §4, §5
The clear plate was stained with 100 μl 0.5% methylene blue in 50% ethanol at room temperature for lh, followed by solvation of the absorbed methylene blue in 100 μl per well of 1% lauroylsarcosine. Absorbance of the plate was measured on a microplate spectrophotometer (Molecular Devices) and the absorbance for each concentration of compound expressed as a proportion of the relative DMSO control. The TD50, the concentration of drug required to reduce the total cell area by 50% relative to the DMSO controls, can be calculated by plotting the absorbance at 620 nm minus background against drug concentration.

T1 sequence (P26663 2420-2989): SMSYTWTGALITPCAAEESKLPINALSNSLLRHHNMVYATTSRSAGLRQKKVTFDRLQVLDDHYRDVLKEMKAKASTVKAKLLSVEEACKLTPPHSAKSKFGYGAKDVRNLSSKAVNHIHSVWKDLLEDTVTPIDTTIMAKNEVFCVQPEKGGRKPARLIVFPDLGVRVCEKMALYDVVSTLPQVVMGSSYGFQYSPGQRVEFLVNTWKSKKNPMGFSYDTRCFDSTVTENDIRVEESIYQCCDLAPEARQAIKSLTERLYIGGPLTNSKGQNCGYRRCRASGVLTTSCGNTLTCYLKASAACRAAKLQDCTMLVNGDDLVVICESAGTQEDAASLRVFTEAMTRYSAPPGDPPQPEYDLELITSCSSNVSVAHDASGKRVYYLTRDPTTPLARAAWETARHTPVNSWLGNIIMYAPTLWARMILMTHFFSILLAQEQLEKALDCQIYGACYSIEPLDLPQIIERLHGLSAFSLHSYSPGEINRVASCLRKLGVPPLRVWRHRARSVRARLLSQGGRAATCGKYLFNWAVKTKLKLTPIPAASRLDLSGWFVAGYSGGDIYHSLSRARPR

| Structure (SMILES) | pIC50 [1] | pIC50 [2] | Replicon Assay Value TD50 [3] [µM] |
| --- | --- | --- | --- |
| CCC(=O)NCCCOc1ccc(Cl)cc1C(=O)NC1N=C(c2c(Cl)cc(Cl)cc2Cl)c2ccccc2NC1=O (stereo not drawn) [Example 26, 5-Chloro-N-(2-oxo-5-(2,4,6-trichlorophenyl)-2,3-dihydro-1H-benzo[e][1,4]diazepin-3-yl)-2-(3-propionamidopropoxy)benzamide] | 5.79 | 6.19 | 12.354 |
| CS(=O)(=O)NCCCOc1ccc(Cl)cc1C(=O)NC1N=C(c2c(Cl)cc(Cl)cc2Cl)c2ccccc2NC1=O (stereo not drawn) [Example 27, 5-Chloro-2-(3-(methylsulfonamido)propoxy)-N-(2-oxo-5-(2,4,6-trichlorophenyl)-2,3-dihydro-1H-benzo[e][1,4]diazepin-3-yl)benzamide] | 5.72 | 6.08 | 13.62 |
| CCS(=O)(=O)NCCCOc1ccc(Cl)cc1C(=O)NC1N=C(c2c(Cl)cc(Cl)cc2Cl)c2ccccc2NC1=O (stereo not drawn) [Example 28, 5-chloro-2-(3-(ethylsulfonamido)propoxy)-N-(2-oxo-5-(2,4,6-trichlorophenyl)-2,3-dihydro-1H-benzo[e][1,4]diazepin-3-yl)benzamide] | 5.67 | 6.07 | 8.004 |
| CS(=O)(=O)CCOc1ccc(Cl)cc1C(=O)NC1N=C(c2c(Cl)cc(Cl)cc2Cl)c2ccccc2NC1=O (stereo not drawn) [Example 29, 5-Chloro-2-(2-(methylsulfonyl)ethoxy)-N-(2-oxo-5-(2,4,6-trichlorophenyl)-2,3-dihydro-1H-benzo[e][1,4]diazepin-3-yl)benzamide] | 5.56 | 6.13 | 15.249 |
| COCCOc1ncc(F)cc1C(=O)NC1N=C(c2c(Cl)cc(Cl)cc2Cl)c2ccccc2NC1=O (stereo not drawn) [Example 30, 5-Fluoro-2-(2-methoxyethoxy)-N-(2-oxo-5-(2,4,6-trichlorophenyl)-2,3-dihydro-1H-benzo[e][1,4]diazepin-3-yl)nicotinamide] | 7.33 | 6.93 | >25 |
| COCCOc1ncccc1C(=O)NC1N=C(c2c(Cl)cc(Cl)cc2Cl)c2ccccc2NC1=O (stereo not drawn) [Example 31, 2-(2-Methoxyethoxy)-N-(2-oxo-5-(2,4,6-trichlorophenyl)-2,3-dihydro-1H-benzo[e][1,4]diazepin-3-yl)nicotinamide] | 6.63 | 6.61 | >25 |
| COCCOc1ncc(Cl)cc1C(=O)NC1N=C(c2c(Cl)cc(Cl)cc2Cl)c2ccccc2NC1=O (stereo not drawn) [Example 32, 5-Chloro-2-(2-methoxyethoxy)-N-(2-oxo-5-(2,4,6-trichlorophenyl)-2,3-dihydro-1H-benzo[e][1,4]diazepin-3-yl)nicotinamide] | 6.87 | 6.75 | >25 |
| COCCOc1ncc(Br)cc1C(=O)NC1N=C(c2c(Cl)cc(Cl)cc2Cl)c2ccccc2NC1=O (stereo not drawn) [Example 33, 5-Bromo-2-(2-methoxyethoxy)-N-(2-oxo-5-(2,4,6-trichlorophenyl)-2,3-dihydro-1H-benzo[e][1,4]diazepin-3-yl)nicotinamide] | 6.31 | 6.58 | >25 |
| CCOCCOc1ncc(F)cc1C(=O)NC1N=C(c2c(Cl)cc(Cl)cc2Cl)c2ccccc2NC1=O (stereo not drawn) [Example 34, 2-(2-Ethoxyethoxy)-5-fluoro-N-(2-oxo-5-(2,4,6-trichlorophenyl)-2,3-dihydro-1H-benzo[e][1,4]diazepin-3-yl)nicotinamide] | 7.85 | 7.04 | 11.884 |
| CO[C@@H](C)COc1ncc(F)cc1C(=O)NC1N=C(c2c(Cl)cc(Cl)cc2Cl)c2ccccc2NC1=O (stereo partly drawn) [Example 35, 5-Fluoro-2-((S)-2-methoxypropoxy)-N-(2-oxo-5-(2,4,6-trichlorophenyl)-2,3-dihydro-1H-benzo[e][1,4]diazepin-3-yl)nicotinamide] | 6.73 | 7.05 | 24.614 |
| CC(C)OCCOc1ncc(F)cc1C(=O)NC1N=C(c2c(Cl)cc(Cl)cc2Cl)c2ccccc2NC1=O (stereo not drawn) [Example 36, 5-Fluoro-2-(2-isopropoxyethoxy)-N-(2-oxo-5-(2,4,6-trichlorophenyl)-2,3-dihydro-1H-benzo[e][1,4]diazepin-3-yl)nicotinamide] | 6.51 | 6.61 | 13.55 |
| COCCOCCOc1ncc(F)cc1C(=O)NC1N=C(c2c(Cl)cc(Cl)cc2Cl)c2ccccc2NC1=O (stereo not drawn) [Example 37, 5-Fluoro-2-(2-(2-methoxyethoxy)ethoxy)-N-(2-oxo-5-(2,4,6-trichlorophenyl)-2,3-dihydro-1H-benzo[e][1,4]diazepin-3-yl)nicotinamide] | 6.58 | 6.99 | 23.09 |
| COCCCOc1ncc(F)cc1C(=O)NC1N=C(c2c(Cl)cc(Cl)cc2Cl)c2ccccc2NC1=O (stereo not drawn) [Example 38, 5-Fluoro-2-(3-methoxypropoxy)-N-(2-oxo-5-(2,4,6-trichlorophenyl)-2,3-dihydro-1H-benzo[e][1,4]diazepin-3-yl)nicotinamide] | 7.80 | 7.10 | 22.269 |
| CCOCCCOc1ncc(F)cc1C(=O)NC1N=C(c2c(Cl)cc(Cl)cc2Cl)c2ccccc2NC1=O (stereo not drawn) [Example 39, 2-(3-Ethoxypropoxy)-5-fluoro-N-(2-oxo-5-(2,4,6-trichlorophenyl)-2,3-dihydro-1H-benzo[e][1,4]diazepin-3-yl)nicotinamide] | 7.18 | 7.02 | 11.83 |

— US20110059043A1, “CHEMICAL COMPOUNDS” (priority 2009, published 2011)
